The numbers were not newly measured in patent US9839604B1, “Composition for an anti-aging treatment” (Parham Tabibian, MD, Inc., priority 2014, dated 2017), which cites them from elsewhere.

For data set [1] the following is noted: compared with other forms of Vitamin K1 and K2, also remains in the bloodstream longer.
For data set [2] the following is noted: humectant capacity.

As for `CC(C)=CCC/C(C)=C/CC/C(C)=C/CC/C(C)=C/CC/C(C)=C/CC/C(C)=C/CC/C(C)=C/CC1=C(C)C(=O)c2ccccc2C1=O` [MK-7], the “levels reached in the bloodstream relative to other forms of Vitamin K1 and K2” value in data set [1] was “seven- to eight-fold higher”.

Turning to hyaluronic acid, in data set [2], the “water attracted and bound” value is given as “up to 1800 times its own weight in water”.
